Test results: patent publication US20230141603A1, “BENZODIAZEPINE DERIVATIVES AS GABA A GAMMA1 PAM” (Hoffmann-La Roche Inc., priority 2021, published 2023)

What was measured:
h-GABAA α1β3γ2 = molecular target: T1, h-GABAA α1β3γ2 (Homo sapiens, UniProt P14867+P18507); assay: Radioligand binding assay, [3H]Flumazenil competition, HEK293F membranes; settings: for γ2/γ1 Selectivity Ratio: Ki α1β3γ2 (nM)/Ki α2β2γ1 (nM); for LogSel: Log[Ki α1β3γ2 (nM)/Ki α2β2γ1 (nM)]
T1 construct: expressed in transfected cells; host or cells: HEK293F cells, membranes
How it was run: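 [3H]Flumazenil competition binding on membranes from HEK293F cells transiently expressing human α1β3γ2 receptors. Incubation to equilibrium for 1 h at 4 °C, then filtration and scintillation counting. Ki is the mean of two determinations.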

h-GABAA α2β2γ1 = molecular target: T2, h-GABAA α2β2γ1 (Homo sapiens, UniProt P47869+Q8N1C3); assay: Two-electrode voltage clamp electrophysiology in Xenopus oocytes, modulation of GABA EC20 current; assay type: cell-based; set-up: host or cells: Xenopus laevis oocytes, RNA micro-injection; settings: for Efficacy (GABA)% / Fold increase h-GABA-A α2β2γ1 oocyte @ 30-fold Ki: Table 2; for Efficacy (GABA)%: % modulation of GABA EC20 = 100*(Fold increase−1), compound at approx. 30-fold Ki; for Fold increase h-GABA-A α2β2γ1 oocyte @ 30-fold Ki: compound at approx. 30-fold its Ki α2β2γ1, GABA EC20, Xenopus oocytes
T2 sequence (P47869 29-451): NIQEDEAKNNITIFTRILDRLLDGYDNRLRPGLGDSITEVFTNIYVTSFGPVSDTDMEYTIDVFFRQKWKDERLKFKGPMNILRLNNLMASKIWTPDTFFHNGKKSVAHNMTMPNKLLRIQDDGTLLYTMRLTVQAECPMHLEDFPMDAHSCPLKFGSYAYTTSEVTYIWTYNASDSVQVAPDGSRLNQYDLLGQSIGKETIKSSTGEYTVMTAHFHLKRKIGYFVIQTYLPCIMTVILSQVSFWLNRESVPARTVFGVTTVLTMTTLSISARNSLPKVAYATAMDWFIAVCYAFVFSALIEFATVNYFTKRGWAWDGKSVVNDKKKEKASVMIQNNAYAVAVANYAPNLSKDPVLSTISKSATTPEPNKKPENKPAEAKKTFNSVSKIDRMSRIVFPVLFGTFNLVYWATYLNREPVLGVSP
T2 sequence (P47870 25-512 partner limits assumed): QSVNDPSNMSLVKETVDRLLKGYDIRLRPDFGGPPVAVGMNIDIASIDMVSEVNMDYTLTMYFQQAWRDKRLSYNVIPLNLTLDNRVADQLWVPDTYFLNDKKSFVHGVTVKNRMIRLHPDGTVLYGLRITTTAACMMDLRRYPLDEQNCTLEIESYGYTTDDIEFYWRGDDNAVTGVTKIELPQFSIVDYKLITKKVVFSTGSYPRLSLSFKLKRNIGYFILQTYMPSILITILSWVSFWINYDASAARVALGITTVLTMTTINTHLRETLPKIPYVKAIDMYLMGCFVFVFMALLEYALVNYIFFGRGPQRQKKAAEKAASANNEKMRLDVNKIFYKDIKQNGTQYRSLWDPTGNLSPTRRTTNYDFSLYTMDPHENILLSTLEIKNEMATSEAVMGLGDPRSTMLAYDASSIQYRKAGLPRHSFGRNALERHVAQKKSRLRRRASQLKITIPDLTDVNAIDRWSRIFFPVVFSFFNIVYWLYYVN
T2 sequence (Q8N1C3 36-465): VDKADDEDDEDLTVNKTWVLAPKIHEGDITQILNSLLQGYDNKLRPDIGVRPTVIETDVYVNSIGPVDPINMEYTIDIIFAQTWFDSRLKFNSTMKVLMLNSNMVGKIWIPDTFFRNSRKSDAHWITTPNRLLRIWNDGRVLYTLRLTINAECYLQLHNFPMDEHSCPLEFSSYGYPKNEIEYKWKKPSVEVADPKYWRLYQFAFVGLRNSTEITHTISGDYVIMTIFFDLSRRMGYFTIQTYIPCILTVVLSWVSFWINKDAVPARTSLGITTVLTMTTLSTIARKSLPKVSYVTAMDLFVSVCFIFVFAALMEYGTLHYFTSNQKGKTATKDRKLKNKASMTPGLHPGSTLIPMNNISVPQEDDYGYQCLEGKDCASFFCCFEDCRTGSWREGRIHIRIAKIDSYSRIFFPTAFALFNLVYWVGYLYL
How it was run: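 Oocytes injected with receptor subunit mRNA were recorded 3–5 days later by two-electrode voltage clamp at −80 mV, room temperature, pH 7.4. Compound was applied during a second GABA EC20 pulse, with at least 3 oocytes per concentration. Efficacy is the ratio-trace extremum, expressed as % modulation of GABA EC20.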

SMILES	Ki (h-GABAA α1β3γ2) [nM]	γ2/γ1 Selectivity Ratio (h-GABAA α1β3γ2; Table 1)	LogSel (h-GABAA α1β3γ2; Table 1)	Efficacy (GABA)% (h-GABAA α2β2γ1) [%]	Fold increase h-GABA-A α2β2γ1 oocyte @ 30-fold Ki (h-GABAA α2β2γ1)	LogSel (h-GABAA α1β3γ2; Table 3)	potentiation of the GABA-induced current (h-GABAA α2β2γ1; α2β2γ1 GABAA receptor subtype expressing oocytes, reference PAMs) [%]
Cc1nnc2n1-c1ccc(C(F)(F)F)c(Cl)c1C(c1ncccc1F)=NC2 [Example 78, 7-chloro-6-(3-fluoro-2-pyridyl)-1-methyl-8-(trifluoromethyl)-4H-[1,2,4]triazolo[4,3-a][1,4]benzodiazepine]	4440	87.4	1.94	103	2.03	–	–
COc1ccc2c(c1Cl)C(c1c(F)cccc1F)=NCc1nnc(C3CC3)n1-2 [Example 79, 7-chloro-1-cyclopropyl-6-(2,6-difluorophenyl)-8-methoxy-4H-[1,2,4]triazolo[4,3-a][1,4]benzodiazepine]	914	17.8	1.25	79	1.79	–	–
COc1nnc2n1-c1ccc(Cl)c(Cl)c1C(c1c(F)cccc1F)=NC2 [Example 90, 7,8-dichloro-6-(2,6-difluorophenyl)-1-methoxy-4H-[1,2,4]triazolo[4,3-a][1,4]benzodiazepine]	305	52.8	1.72	65	1.65	–	–
CO[C@H]1C[C@H](c2nnc3n2-c2ccc(Cl)c(Cl)c2C(c2c(F)cccc2F)=NC3)C1 [Example 91, trans-7,8-dichloro-6-(2,6-difluorophenyl)-1-(3-methoxycyclobutyl)-4H-[1,2,4]triazolo[4,3-a][1,4]benzodiazepine]	1340	36.8	1.57	58	1.58	–	–
Fc1cccc(F)c1C1=NCc2nnc(-c3cccnn3)n2-c2ccc(Br)c(Cl)c21 [Example 104, 8-bromo-7-chloro-6-(2,6-difluorophenyl)-1-pyridazin-3-yl-4H-[1,2,4]triazolo[4,3-a][1,4]benzodiazepine]	89.3	38.1	1.58	94	1.94	–	–
Cc1ncc2n1-c1ccc(Cl)cc1C(c1ccccc1F)=NC2 [Midazolam, reference compound]	5	–	–	–	–	−2.2	~60
